Reference: ChEMBL document CHEMBL5233225, “Para-sulfonatocalix[n]arene-based biomaterials: Recent progress in pharmaceutical and biological applications” (Eur J Med Chem, 2020)

Tests used:
K562 = assay: Photodynamic antitumor activity against human K562 cells assessed as mortality rate preincubated for 24 hrs followed by irradiation by UV-VIS spectrophotometer; assay type: functional
[1] = Haemolytic activity in human RBC measured after 30 mins by spectrophotometric analysis; assay type: toxicity, cell-based, Erythrocyte; settings: red blood cells (RBC), read-out: Activity

Row | Compound | Activity (K562) [%] | hemolysis at 0.5 h [1] [%]
1 | O=S(=O)(O)c1cc2c(O)c(c1)Cc1cc(S(=O)(=O)O)cc(c1O)Cc1cc(S(=O)(=O)O)cc(c1O)Cc1cc(S(=O)(=O)O)cc(c1O)Cc1cc(S(=O)(=O)O)cc(c1O)Cc1cc(S(=O)(=O)O)cc(c1O)Cc1cc(S(=O)(=O)O)cc(c1O)Cc1cc(S(=O)(=O)O)cc(c1O)C2 | 30 | 29
2 | O=S(=O)(O)c1cc2c(O)c(c1)Cc1cc(S(=O)(=O)O)cc(c1O)Cc1cc(S(=O)(=O)O)cc(c1O)Cc1cc(S(=O)(=O)O)cc(c1O)Cc1cc(S(=O)(=O)O)cc(c1O)Cc1cc(S(=O)(=O)O)cc(c1O)C2 | 60 | 12
